From patent publication US11124500B2, “Disubstituted pyrazole compounds” (Eli Lilly and Company, priority 2019, dated 2021)

Legend:
[1] = target: human KHK-A (Homo sapiens (Human), UniProt P50053); assay: KHK enzyme activity assay, human KHK-A (F1P production, RapidFire MS); format: biochemical; details: fructose 1.25 mM, ATP 150 μM; average ± SEM; read-out: hKHK-A IC50
Experimental: (§1) KHK Enzyme Activity Assay for Human KHK-C and Human KHK-A
(§2) The intrinsic potency for inhibition of KHK C or A activity may be measured using an enzymatic assay which measures the production of FIP. Compounds are prepared in DMSO and tested in a 10-point concentration curve, to create 3-fold serial dilutions of the compounds in a 96-well plate ranging from 20 μM to 1.02 nM. Enzyme is prepared in assay buffer [50 mM 4-(2-hydroxyethyl)piperazine-1-ethanesulfonic acid (HEPES), 10 mM potassium chloride, 100 mM magnesium chloride, 2 mM tris(2-carboxyethyl)phosphine (TCEP), 0.01% n-octyl glucoside] and incubated with compounds at RT for 15 min. The reaction is carried out in 100 μL volumes containing substrate concentrations of fructose (250 μM for KHK-C assay and 1.25 mM for KHK-A assay) and ATP (150 μM for both isoforms); which are further incubated at RT for 20 min. The reaction is then halted by the addition of stop buffer; consisting of 0.2% formic acid and 1 μg/ml ^13C6-fructose-6-phosphate (^13C6-F6P) internal standard. Plates are stored in −20° C. until RapidFire MS analysis.
(§3) RapidFire MS Analysis for Quantitation of F1P
(§4) An Agilent 300 RapidFire automated extraction system (Agilent, Santa Clara, Calif.) with three HPLC quaternary pumps is coupled to an Agilent 6495 triple quadrupole mass spectrometer (Agilent Technologies, Santa Clara, Calif.) equipped with an electrospray ionization (ESI) interface source. The RapidFire Mass Spec system is equipped with a reusable RapidFire C18 (type C) solid-phase extraction (SPE) cartridge (G9205 Å).
(§5) Solvent A, used for sample loading and washing, is 6 mM octylamine (Acros Organics 129495000) brought to pH 5.0 using acetic acid. Solvent B, used for sample elution, is 20% water in ACN containing 0.1% formic acid. Samples are sequentially analyzed by aspirating 10 μL onto the collection loop under vacuum directly from multiwell plates. The 10 μL of sample is loaded onto the C18 cartridge and washed using solvent A at a flow rate of 1.25 mL/min for 5000 ms. The retained analytes are then eluted to the mass spectrometer using solvent B at a flow rate of 1.25 mL/min for 5000 ms. The system is re-equilibrated using solvent at flow rate of 1.25 mL/min for 2000 ms.
(§6) The triple quadrupole mass spectrometer is equipped with an ESI source and analytes are monitored using selected reaction monitoring (SRM) in negative mode [M−H]−. F1P is monitored at m/z 259.02/96.9 and ^13C6-fructose-6-phosphate is monitored at m/z 264.99/97. The area ratio values for F1P is calculated using ^13C6-fructose-6-phospate as internal standard.

[2] = target: human KHK-C (Homo sapiens (Human), UniProt P50053); assay: KHK enzyme activity assay, human KHK-C (F1P production, RapidFire MS); format: biochemical; details: fructose 250 μM, ATP 150 μM; average ± SEM; read-out: hKHK-C IC50
Experimental: as §1, §2, §3, §4, §5, §6

human KHK-A, sequence (P50053 other isoform, or with tags, fused parts or gaps): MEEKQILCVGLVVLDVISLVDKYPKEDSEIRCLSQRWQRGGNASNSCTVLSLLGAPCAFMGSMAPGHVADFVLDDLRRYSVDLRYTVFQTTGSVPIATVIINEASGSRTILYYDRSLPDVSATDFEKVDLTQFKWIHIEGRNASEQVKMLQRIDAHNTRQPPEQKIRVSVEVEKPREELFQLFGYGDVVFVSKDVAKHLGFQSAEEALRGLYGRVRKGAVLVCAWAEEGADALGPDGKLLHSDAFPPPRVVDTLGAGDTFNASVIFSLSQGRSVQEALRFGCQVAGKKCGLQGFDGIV
human KHK-C, sequence (P50053 whole entry): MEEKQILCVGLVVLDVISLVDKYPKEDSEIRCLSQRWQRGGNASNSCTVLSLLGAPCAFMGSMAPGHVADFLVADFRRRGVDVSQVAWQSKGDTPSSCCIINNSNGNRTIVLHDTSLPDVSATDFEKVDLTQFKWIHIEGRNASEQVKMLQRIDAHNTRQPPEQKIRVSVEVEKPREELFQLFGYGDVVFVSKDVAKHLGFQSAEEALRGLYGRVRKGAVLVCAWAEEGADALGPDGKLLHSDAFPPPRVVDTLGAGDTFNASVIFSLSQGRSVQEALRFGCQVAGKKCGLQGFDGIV

Row | SMILES | IC50 [1] | IC50 [2]
1 | C[C@H]1CN(C(=O)Cn2cc(-c3cc(C(F)(F)F)nc(N4CC[C@@H]4C)n3)cn2)CCN1 [Example 29, 2-[4-[2-[(2S)-2-Methylazetidin-1-yl]-6-(trifluoromethyl)pyrimidin-4-yl]pyrazol-1-yl]-1-[(3S)-3-methylpiperazin-1-yl]ethanone] | 103 nM | 38.6 nM
2 | CC(=O)N1CCC(n2cc(-c3cc(C(F)(F)F)c(C#N)c(N4CC[C@@H]4C)n3)cn2)CC1 [Example 19, 6-[1-(1-Acetyl-4-piperidyl)pyrazol-4-yl]-2-[(2S)-2-methylazetidin-1-yl]-4-(trifluoromethyl)pyridine-3-carbonitrile] | 29.2 nM | 54.3 nM
3 | C[C@H]1CCN1c1nc(-c2cnn(CC(=O)NCCO)c2)cc(C(F)(F)F)c1C#N [Example 5, 2-[4-[5-Cyano-6-[(2S)-2-methylazetidin-1-yl]-4-(trifluoromethyl)-2-pyridyl]pyrazol-1-yl]-N-(2-hydroxyethyl)acetamide] | 37.7 ± 19.9 nM | 57 ± 32.6 nM
4 | N#Cc1c(C(F)(F)F)cc(-c2cnn(C3CCNCC3)c2)nc1N1CC[C@@H]1CO [Example 6, 2-[(2R)-2-(Hydroxymethyl)azetidin-1-yl]-6-[1-(4-piperidyl)pyrazol-4-yl]-4-(trifluoromethyl)pyridine-3-carbonitrile] | 15.4 ± 5.05 nM | 25.7 ± 5.14 nM
5 | C[C@H]1CCN1c1nc(-c2cnn(CC(=O)N3C[C@H](O)[C@@H](O)C3)c2)cc(C(F)(F)F)c1C#N [Example 23, 6-[1-[2-[(3S,4S)-3,4-Dihydroxypyrrolidin-1-yl]-2-oxo-ethyl]pyrazol-4-yl]-2-[(2S)-2-methylazetidin-1-yl]-4-(trifluoromethyl)pyridine-3-carbonitrile] | 24.9 ± 15.3 nM | 41.6 ± 47.1 nM
6 | OC[C@H]1CCN1c1nc(-c2cnn(C3CNC3)c2)cc(C(F)(F)F)n1 [Example 3, [(2R)-1-[4-[1-(Azetidin-3-yl)pyrazol-4-yl]-6-(trifluoromethyl)pyrimidin-2-yl]azetidin-2-yl]methanol] | 45.4 ± 29.5 nM | 41.9 ± 6.77 nM

The next molecules have a lower IC50 [1] than those just listed; values first:

Row | IC50 [1] | IC50 [2] | SMILES
7 | 6.02 ± 2.27 nM | 18.1 ± 4.85 nM | C[C@H]1[C@H](O)CN1c1nc(-c2cnn(C3CCNCC3)c2)cc(C(F)(F)F)c1C#N [Example 7, 2-[(2S,3R)-3-Hydroxy-2-methyl-azetidin-1-yl]-6-[1-(4-piperidyl)pyrazol-4-yl]-4-(trifluoromethyl)pyridine-3-carbonitrile]
8 | 13.2 ± 12.7 nM | 16.1 ± 7.96 nM | C[C@H]1CCN1c1nc(-c2cnn(C3CNC3)c2)cc(C(F)(F)F)c1C#N [Example 17, 6-[1-(Azetidin-3-yl)pyrazol-4-yl]-2-[(2S)-2-methylazetidin-1-yl]-4-(trifluoromethyl)pyridine-3-carbonitrile]
9 | 5.23 nM | 8.03 nM | C[C@H]1CCN1c1nc(-c2cnn(CCO)c2)cc(C(F)(F)F)c1C#N [Example 11, 6-[1-(2-Hydroxyethyl)pyrazol-4-yl]-2-[(2S)-2-methylazetidin-1-yl]-4-(trifluoromethyl)pyridine-3-carbonitrile]
10 | 4.63 nM | 9.21 nM | C[C@H]1CCN1c1nc(-c2cnn(C3CCNCC3O)c2)cc(C(F)(F)F)c1C#N (stereo partly drawn) [Example 27, 6-[1-(3-Hydroxy-4-piperidyl)pyrazol-4-yl]-2-[(2S)-2-methylazetidin-1-yl]-4-(trifluoromethyl)pyridine-3-carbonitrile]
11 | 5.41 ± 6.13 nM | 3.71 ± 0.178 nM | C[C@H]1CCN1c1nc(-c2cnn(C3CN(C)C3)c2)cc(C(F)(F)F)n1 [Example 34, 2-[(2S)-2-Methylazetidin-1-yl]-4-[1-(1-methylazetidin-3-yl)pyrazol-4-yl]-6-(trifluoromethyl)pyrimidine]
12 | 7.29 nM | 7.91 nM | C[C@H]1CCN1c1nc(-c2cnn(CC(O)CO)c2)cc(C(F)(F)F)c1C#N (stereo partly drawn) [Example 24, 6-[1-(2,3-Dihydroxypropyl)pyrazol-4-yl]-2-[(2S)-2-methylazetidin-1-yl]-4-(trifluoromethyl)pyridine-3-carbonitrile]
